Structures are written as SMILES. A value given as a limit tells only on which side of the number the result lay.

Data set [1] has as its system AKT phosphorylation. Put plainly: Western blot in LS513 cells. Type of data set: cell-based, human. The settings on record: LS513, 1 h treatment. The method, then:
(§1) In 6-well plates, LS513 cells were seeded and allowed to adhere and proliferate for 24 h. […] After treatment, the cells were harvested using RIPA lysis buffer to extract cellular proteins. The cell lysates were subjected to Western blot analysis. Antibodies specific to phosphorylated epidermal growth factor receptor (p-EGFR, Cell Signaling Technology, Danvers, MA, USA, #2234S), epidermal growth factor receptor (EGFR, Cell Signaling Technology #2232S), phosphorylated vascular endothelial growth factor receptor (p-VEGFR, Cell Signaling Technology #3770S), vascular endothelial growth factor receptor (VEGFR, Cell Signaling Technology #2479S), phosphorylated Akt (p-Akt, Cell Signaling Technology #9271S), Akt (Cell Signaling Technology #9272S), phosphorylated MEK (p-MEK, Cell Signaling Technology #9121S), MEK (Cell Signaling Technology #9122), phosphorylated ERK (p-ERK, Cell Signaling Technology #9101S), and ERK (Cell Signaling Technology #9102S) were used for protein detection. The antibodies were diluted 1:1000 for the specific target proteins. In addition, a β-actin antibody (Sigma-Aldrich, Seoul, Republic of Korea, #A5441) diluted 1:5000 was used as a loading control. Bone-marrow-derived macrophages (BMDMs) were plated and allowed to adhere and proliferate for 24 h. […] Subsequently, the cells were stimulated with recombinant human angiopoietin-2 (R&D Systems, Minneapolis, MN, USA, #623-AN) and CSF1 (Peprotech, #300-25) for 15 min. After stimulation, protein samples were obtained from the cells. The cell lysates were analyzed by Western blot using specific antibodies, such as p-CSF1R (Cell Signaling, #14591S), CSF1R (Cell Signaling, #67455S), p-TIE2 (Cell Signaling, #4221S), and TIE2 (Santa Cruz Biotechnology, Dallas, TX, USA, #sc-293414), to detect and analyze the respective proteins.

For data set [2], the system named is MEK and ERK phosphorylation. The data set is described as follows: Western blot in LS513 cells. Type of data set: cell-based, human. The method, then: as §1
The nature of data set [3]: Single oral dose, central nervous system. Type of data set: in vivo, ICR mice. To be noted: single oral dose 500 mg/kg.
Data set [4] in a line: 2-week repeated oral DRF toxicity study. Type of data set: in vivo.
Data set [5] concerns the target BRAF (V600E) (Homo sapiens, UniProt P15056, V600E). Put plainly: Eurofins kinase assay.
The target in data set [6] is Fyn(h) (Homo sapiens, UniProt P06241). Put plainly: Eurofins kinase assay.
Data set [7] has as its target PI3Kinase(p110a/p85a)(h) (Homo sapiens, UniProt P42336). The data set is described as follows: Eurofins kinase assay.
In data set [8] the target is Met(h) (Homo sapiens, UniProt P08581). The data set is described as follows: Eurofins kinase assay.
In data set [9] the target is PKCι(h) (Homo sapiens, UniProt P41743). The data set is described as follows: Eurofins kinase assay.
Data set [10] addresses PKCθ(h) (Homo sapiens, UniProt Q04759). Put plainly: Eurofins kinase assay.
In data set [11] the target is PAR-1Bα(h) (Homo sapiens, UniProt Q7KZI7). Put plainly: Eurofins kinase assay.
For data set [12], the target named is CaMKIV(h) (Homo sapiens, UniProt Q16566). Put plainly: Eurofins kinase assay.
The target in data set [13] is PAK2(h) (Homo sapiens, UniProt Q13177). The data set is described as follows: Eurofins kinase assay.
The target of data set [14] is CDK6/cyclinD3(h) (Homo sapiens, UniProt Q00534). The data set is described as follows: Eurofins kinase assay.
Data set [15] concerns the target IGF-1R(h) (Homo sapiens, UniProt P08069). Put plainly: Eurofins kinase assay.
The target in data set [16] is T1, ARAF (Homo sapiens, UniProt P10398).
T1 sequence (P10398 1-606): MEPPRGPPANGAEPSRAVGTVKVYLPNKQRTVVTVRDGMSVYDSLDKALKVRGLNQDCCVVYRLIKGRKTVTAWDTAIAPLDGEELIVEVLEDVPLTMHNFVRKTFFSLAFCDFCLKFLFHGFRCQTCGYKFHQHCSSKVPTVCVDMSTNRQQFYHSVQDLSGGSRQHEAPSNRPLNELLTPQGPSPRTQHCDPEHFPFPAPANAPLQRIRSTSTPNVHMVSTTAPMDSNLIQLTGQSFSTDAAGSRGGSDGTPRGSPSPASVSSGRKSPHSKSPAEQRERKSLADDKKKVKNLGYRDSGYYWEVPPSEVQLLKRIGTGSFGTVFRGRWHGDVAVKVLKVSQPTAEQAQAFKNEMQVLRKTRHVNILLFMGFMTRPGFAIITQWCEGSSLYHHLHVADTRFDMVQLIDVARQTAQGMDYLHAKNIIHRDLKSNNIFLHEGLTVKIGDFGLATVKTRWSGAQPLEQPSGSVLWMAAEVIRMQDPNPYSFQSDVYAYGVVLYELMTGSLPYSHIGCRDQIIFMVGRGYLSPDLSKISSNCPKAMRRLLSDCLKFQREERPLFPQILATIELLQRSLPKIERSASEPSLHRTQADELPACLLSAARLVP
Put plainly: KiNativ cell-based kinase assay in HCT116. Details: purchased Eurofins (Poitiers, France). To be noted: HCT116, full-length protein; read-out: Binding Affinities in HCT116 (EC50). Here is the method:
(§2) Kinase selectivity profiling in cells was carried out using the KiNativ assay developed by ActivX Biosciences (La Jolla, CA, USA). HCT 116 cells were utilized for the experiment. […] Following the treatment, the cells were lysed, and the lysates were processed for further analysis. Probe labeling was performed using the lysates, and the labeled samples were subjected to LC/MS-MS (Liquid Chromatography/Mass Spectrometry) analysis.

The target of data set [17] is BRAF (Homo sapiens, UniProt P15056). The data set is described as follows: KiNativ cell-based kinase assay in HCT116. Further details: purchased Eurofins (Poitiers, France). The method, then: as §2
For data set [18], the target named is CRAF (Homo sapiens, UniProt P04049). Put plainly: KiNativ cell-based kinase assay in HCT116. Further details: purchased Eurofins (Poitiers, France). The method, then: as §2
In data set [19] the test system is KRAS and BRAF mutant cancer cells (HCT116, LS513, SW620, HT29). Put plainly: Cell growth assay, panel of cell lines. The settings on record: read-out: IC50 values, cell growth.
Description: To assess cell viability, the CellTiter-Glo Luminescent Cell Viability Assay Reagent (Promega, Fitchburg, WI, USA) was added to each well. The assay measured ATP levels as an indicator of cell viability. All data points were normalized to the control samples treated with dimethyl sulfoxide when determining IC50 values. Statistical calculations and data analysis, including IC50 determination, were performed using GraphPad Prism software.
Setting [20] is: HCT116, full-length protein, read-out: Binding Affinities in HCT116 (EC50).
[21] abbreviates: HCT 116 cells, 2 h, 10 µM, read-out: inhibition of probe binding.

Chain of CRAF (P04049 whole entry): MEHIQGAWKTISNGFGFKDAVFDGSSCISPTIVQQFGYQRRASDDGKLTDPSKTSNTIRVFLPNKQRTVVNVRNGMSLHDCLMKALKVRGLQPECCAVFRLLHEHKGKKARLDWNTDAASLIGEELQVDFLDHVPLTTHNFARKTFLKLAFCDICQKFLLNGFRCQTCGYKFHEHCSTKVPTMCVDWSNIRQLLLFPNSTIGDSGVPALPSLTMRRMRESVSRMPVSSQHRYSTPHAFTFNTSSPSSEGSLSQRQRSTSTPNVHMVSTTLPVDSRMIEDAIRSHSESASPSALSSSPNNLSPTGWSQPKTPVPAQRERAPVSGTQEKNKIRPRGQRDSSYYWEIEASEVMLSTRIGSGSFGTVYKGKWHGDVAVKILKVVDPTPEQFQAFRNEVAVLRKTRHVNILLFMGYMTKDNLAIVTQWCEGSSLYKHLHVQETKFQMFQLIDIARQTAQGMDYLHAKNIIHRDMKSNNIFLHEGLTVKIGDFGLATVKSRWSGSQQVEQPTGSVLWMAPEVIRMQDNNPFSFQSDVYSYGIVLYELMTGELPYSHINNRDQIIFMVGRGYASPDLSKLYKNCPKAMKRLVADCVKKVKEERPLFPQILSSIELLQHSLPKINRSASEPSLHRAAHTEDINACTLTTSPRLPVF
Chain of BRAF (P15056 whole entry): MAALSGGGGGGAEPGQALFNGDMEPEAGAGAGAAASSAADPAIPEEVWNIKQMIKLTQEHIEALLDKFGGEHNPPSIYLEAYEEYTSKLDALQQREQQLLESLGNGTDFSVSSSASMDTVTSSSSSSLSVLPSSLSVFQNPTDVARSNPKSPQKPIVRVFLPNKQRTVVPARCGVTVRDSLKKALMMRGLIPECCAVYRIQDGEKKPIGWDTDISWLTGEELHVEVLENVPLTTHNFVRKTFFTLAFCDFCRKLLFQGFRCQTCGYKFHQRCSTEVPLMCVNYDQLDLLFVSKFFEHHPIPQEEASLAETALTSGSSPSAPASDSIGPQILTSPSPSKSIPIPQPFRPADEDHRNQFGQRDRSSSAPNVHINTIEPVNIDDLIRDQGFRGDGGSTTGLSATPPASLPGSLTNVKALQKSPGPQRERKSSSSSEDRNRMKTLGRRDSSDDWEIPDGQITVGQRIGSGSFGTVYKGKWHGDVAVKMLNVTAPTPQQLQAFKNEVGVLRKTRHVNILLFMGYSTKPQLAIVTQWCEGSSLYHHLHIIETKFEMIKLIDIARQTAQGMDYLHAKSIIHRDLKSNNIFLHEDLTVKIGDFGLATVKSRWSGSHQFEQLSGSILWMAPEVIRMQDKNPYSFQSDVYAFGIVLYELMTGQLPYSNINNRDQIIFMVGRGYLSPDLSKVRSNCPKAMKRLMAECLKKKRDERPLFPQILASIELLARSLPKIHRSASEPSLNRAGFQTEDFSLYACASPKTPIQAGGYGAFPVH
Chain of Fyn(h) (P06241 whole entry): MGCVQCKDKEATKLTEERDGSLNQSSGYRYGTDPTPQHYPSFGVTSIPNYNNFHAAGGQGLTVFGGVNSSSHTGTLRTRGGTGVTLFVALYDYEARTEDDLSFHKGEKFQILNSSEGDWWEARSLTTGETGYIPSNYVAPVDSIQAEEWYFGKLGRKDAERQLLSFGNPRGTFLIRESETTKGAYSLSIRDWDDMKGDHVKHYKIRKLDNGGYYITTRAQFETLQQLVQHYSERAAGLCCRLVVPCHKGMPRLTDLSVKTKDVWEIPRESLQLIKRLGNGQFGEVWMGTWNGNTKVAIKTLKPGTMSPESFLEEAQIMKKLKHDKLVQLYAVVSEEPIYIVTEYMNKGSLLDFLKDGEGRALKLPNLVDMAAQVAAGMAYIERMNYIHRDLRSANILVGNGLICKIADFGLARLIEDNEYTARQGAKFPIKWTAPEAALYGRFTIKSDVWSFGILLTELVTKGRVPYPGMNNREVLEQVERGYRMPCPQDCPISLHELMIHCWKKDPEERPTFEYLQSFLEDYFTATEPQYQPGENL
Chain of PKCθ(h) (Q04759 whole entry): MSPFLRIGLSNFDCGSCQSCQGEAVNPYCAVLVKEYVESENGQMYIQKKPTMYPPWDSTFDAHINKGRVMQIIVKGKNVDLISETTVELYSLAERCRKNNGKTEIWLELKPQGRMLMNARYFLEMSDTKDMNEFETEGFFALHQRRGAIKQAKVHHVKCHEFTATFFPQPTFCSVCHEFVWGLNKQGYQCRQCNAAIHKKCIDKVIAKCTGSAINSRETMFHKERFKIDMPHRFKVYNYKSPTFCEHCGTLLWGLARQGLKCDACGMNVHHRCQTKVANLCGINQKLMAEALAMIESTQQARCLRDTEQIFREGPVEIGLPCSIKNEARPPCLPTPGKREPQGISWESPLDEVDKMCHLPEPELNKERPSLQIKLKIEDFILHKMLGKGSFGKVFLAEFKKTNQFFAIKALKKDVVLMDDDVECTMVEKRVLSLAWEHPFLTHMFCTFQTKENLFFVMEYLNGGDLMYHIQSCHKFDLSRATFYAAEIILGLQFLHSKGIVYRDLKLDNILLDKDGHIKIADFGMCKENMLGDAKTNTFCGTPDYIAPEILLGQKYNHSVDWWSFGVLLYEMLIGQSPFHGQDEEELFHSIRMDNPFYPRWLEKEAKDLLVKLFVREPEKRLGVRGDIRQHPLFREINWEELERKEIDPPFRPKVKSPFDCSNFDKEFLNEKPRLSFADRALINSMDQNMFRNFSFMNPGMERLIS
Chain of CDK6/cyclinD3(h) (Q00534 whole entry): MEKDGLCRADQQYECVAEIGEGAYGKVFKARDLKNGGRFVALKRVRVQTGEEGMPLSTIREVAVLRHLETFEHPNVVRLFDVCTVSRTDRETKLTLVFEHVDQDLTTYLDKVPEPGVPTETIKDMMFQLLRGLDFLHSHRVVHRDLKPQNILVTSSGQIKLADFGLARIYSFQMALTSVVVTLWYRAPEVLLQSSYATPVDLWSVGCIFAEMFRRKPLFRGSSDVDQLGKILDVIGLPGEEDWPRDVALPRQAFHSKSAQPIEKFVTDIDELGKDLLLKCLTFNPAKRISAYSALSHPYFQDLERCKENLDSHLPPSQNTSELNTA
Chain of CDK6/cyclinD3(h) (P30281 whole entry partner): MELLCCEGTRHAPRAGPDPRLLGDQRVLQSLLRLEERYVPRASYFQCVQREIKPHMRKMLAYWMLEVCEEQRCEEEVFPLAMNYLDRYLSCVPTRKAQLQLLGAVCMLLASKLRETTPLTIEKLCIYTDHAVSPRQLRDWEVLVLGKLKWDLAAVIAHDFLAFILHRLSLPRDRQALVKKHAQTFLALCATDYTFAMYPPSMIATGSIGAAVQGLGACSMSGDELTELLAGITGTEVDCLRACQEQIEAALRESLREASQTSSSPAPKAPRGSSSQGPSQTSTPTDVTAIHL
Chain of IGF-1R(h) (P08069 31-1367): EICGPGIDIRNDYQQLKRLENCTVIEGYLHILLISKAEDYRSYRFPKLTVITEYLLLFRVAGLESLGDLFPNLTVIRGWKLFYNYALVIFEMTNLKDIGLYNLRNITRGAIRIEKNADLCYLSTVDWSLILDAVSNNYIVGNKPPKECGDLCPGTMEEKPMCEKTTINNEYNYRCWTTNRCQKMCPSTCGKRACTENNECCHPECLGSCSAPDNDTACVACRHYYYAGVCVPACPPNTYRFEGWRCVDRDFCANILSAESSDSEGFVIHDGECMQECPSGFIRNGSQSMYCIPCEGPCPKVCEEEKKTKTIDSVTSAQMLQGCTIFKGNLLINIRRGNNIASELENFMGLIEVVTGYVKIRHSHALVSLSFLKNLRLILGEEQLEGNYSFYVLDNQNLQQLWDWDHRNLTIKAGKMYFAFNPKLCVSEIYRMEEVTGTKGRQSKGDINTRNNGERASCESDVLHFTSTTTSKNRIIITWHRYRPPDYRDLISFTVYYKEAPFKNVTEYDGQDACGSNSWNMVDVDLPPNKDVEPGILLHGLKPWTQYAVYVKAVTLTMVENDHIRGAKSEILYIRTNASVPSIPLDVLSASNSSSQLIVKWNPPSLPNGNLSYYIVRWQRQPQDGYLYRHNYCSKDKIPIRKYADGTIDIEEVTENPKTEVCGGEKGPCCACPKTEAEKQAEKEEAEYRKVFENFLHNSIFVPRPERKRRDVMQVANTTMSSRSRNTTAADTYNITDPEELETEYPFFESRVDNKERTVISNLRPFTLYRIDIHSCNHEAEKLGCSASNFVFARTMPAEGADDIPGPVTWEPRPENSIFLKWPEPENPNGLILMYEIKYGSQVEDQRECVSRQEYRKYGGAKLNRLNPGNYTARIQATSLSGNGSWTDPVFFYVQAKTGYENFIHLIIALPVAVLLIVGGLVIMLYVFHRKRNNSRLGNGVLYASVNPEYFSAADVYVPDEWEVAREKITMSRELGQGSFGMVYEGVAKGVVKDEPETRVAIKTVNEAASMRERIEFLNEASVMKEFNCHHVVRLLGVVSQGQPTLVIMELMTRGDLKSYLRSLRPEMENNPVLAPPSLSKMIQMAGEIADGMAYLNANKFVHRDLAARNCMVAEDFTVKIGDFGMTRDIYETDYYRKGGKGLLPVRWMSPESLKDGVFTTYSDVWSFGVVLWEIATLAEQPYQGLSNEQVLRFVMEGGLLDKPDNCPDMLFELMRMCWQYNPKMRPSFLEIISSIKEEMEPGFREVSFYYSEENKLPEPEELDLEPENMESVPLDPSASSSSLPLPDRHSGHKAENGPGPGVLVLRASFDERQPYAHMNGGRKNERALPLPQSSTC
Chain of BRAF (V600E) (P15056 whole entry V600E): as the sequence (P15056 whole entry) above, with V600E counted along it

Usually inhibition stands for the change of the read-out against control, counted positive when it falls. By EC50 is commonly meant the concentration at which the effect is half-maximal. What is called IC50 is the point on the concentration scale where inhibition reaches its midpoint. In the case of `O=C(Nc1cc(Nc2ncccc2-c2ncnc3[nH]cnc23)ccc1F)c1cc(C(F)(F)F)cc(C(F)(F)F)c1` [SJ-C1044, N-(5-(3-(9H-purin-6-yl)pyridin-2-ylamino)-2-fluorophenyl)-3,5-bis(trifluoromethyl)benzamide], in data set [1], the AKT phosphorylation entry was “no detectable difference”. Besides, the “paradoxical activation of MEK and ERK” value in data set [2] (KRAS-mutated colorectal cancer cells) is reported as “without any evidence of paradoxical activation”. Moreover, the “MEK and ERK phosphorylation” value in data set [2] (LS513, 1 h treatment) was “inhibited MEK and ERK phosphorylation potently”. Besides, the “central nervous system changes” value in [3] is on record as “did not result in any abnormal changes”. The “2-week repeated oral toxicity” value in data set [4] (250 mg/kg oral) is listed as “no toxicity”; in [4] (500 mg/kg oral) it was “decreased body weight”. Besides, the inhibition at 10 µM is 80% in [5]; 27% in data set [6]; 23% in data set [7]; 13% in [8]; 11% in data set [9]; 5% in [10]. Moreover, the inhibition at 10 µM is 3% in [11]; 2% in data set [12]; -1% in data set [13]; -5% in data set [14]; -24% in data set [15]; 86% in [17] (setting [21]). In data set [18] (setting [21]), the inhibition at 10 µM was 83%. Moreover, the EC50 in [16] is > 10 µM; in [17] (setting [20]), 1.3 µM; in data set [18] (setting [20]), 1.4 µM. Also, the IC50 in [19] is 0.16 to 0.628 µM.
